From ChEMBL document CHEMBL1201862, “PubChem BioAssay data set” (2004)
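These data come from cells grown in 96-well plates and exposed to compound for 48 hours at five concentrations. GI50: concentration for 50% inhibition of growth.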 Active and inactive are the calls of the source. No stated cut-off is given here; in the data, active = GI50 up to about 1.1 µM and inactive = higher.

Legend:
Experiment in all cases: DTP human tumour cell line panel, 48 h
[1] = test system: 786-0
[2] = test system: COLO 205
[3] = test system: DU-145
[4] = test system: HCT-116
[5] = test system: HT-29
[6] = test system: Hs-578T
[7] = test system: IGROV-1
[8] = test system: MOLT-4
[9] = test system: NCI-H460
[10] = test system: OVCAR-3
[11] = test system: PC-3
[12] = test system: SF-295
[13] = test system: SK-MEL-28
[14] = test system: SK-MEL-2
[15] = test system: SK-MEL-5
[16] = test system: TK-10
[17] = test system: UACC-62
[18] = test system: CCRF-CEM

Compound | GI50 [1] | GI50 [2] | GI50 [3] | GI50 [4] | GI50 [5] | GI50 [6] | GI50 [7] | GI50 [8] | GI50 [9] | GI50 [10] | GI50 [11] | GI50 [12] | GI50 [13] | GI50 [14] | GI50 [15] | GI50 [16] | GI50 [17] | GI50 [18]
Cc1cc2sc(C)[n+](CCCOS(=O)(=O)[O-])c2cc1C | > 100 µM (inactive) | > 100 µM (inactive) | > 100 µM (inactive) | > 100 µM (inactive) | > 100 µM (inactive) | 27.9 µM (inactive) | > 100 µM (inactive) | 72.4 µM (inactive) | > 100 µM (inactive) | > 100 µM (inactive) | > 100 µM (inactive) | > 100 µM (inactive) | > 100 µM (inactive) | > 100 µM (inactive) | > 100 µM (inactive) | > 100 µM (inactive) | > 100 µM (inactive) | 
COc1ccc(CN=C(N)N)c2ccccc12 | 12.7 µM (inactive) | 15.8 µM (inactive) | 57.7 µM (inactive) | 24.6 µM (inactive) | 15.8 µM (inactive) | 24.1 µM (inactive) |  | 48.3 µM (inactive) |  | 42.9 µM (inactive) | 17.7 µM (inactive) | 2.7 µM (inactive) | 22.3 µM (inactive) | 35.1 µM (inactive) | 20 µM (inactive) | 22.2 µM (inactive) | 39.4 µM (inactive) | 38.3 µM (inactive)
O=C1CCCCCC1CC(Sc1ccccc1)Sc1ccccc1 (stereo not given) | > 100 µM (inactive) | 61.4 µM (inactive) | > 100 µM (inactive) |  | > 100 µM (inactive) | 96.2 µM (inactive) | > 100 µM (inactive) | 8.69 µM (inactive) | 64.7 µM (inactive) | 46.9 µM (inactive) | 51.6 µM (inactive) | > 100 µM (inactive) | > 100 µM (inactive) | > 100 µM (inactive) | 52.5 µM (inactive) | > 100 µM (inactive) | 81.8 µM (inactive) | 25.2 µM (inactive)
O=C(O)C1CCCN1Cc1cc2ccccc2c2ccccc12 (stereo not given) | > 100 µM (inactive) | > 100 µM (inactive) | > 100 µM (inactive) | > 100 µM (inactive) | > 100 µM (inactive) | > 100 µM (inactive) | > 100 µM (inactive) | > 100 µM (inactive) | > 100 µM (inactive) | > 100 µM (inactive) | > 100 µM (inactive) | > 100 µM (inactive) | > 100 µM (inactive) | > 100 µM (inactive) | > 100 µM (inactive) | > 100 µM (inactive) | > 100 µM (inactive) | 
c1csc(-c2cc(-c3cccs3)c(-c3ccsc3)s2)c1 | > 100 µM (inactive) | 55.5 µM (inactive) | > 100 µM (inactive) | > 100 µM (inactive) | > 100 µM (inactive) | > 100 µM (inactive) | > 100 µM (inactive) | > 100 µM (inactive) | > 100 µM (inactive) |  | > 100 µM (inactive) | > 100 µM (inactive) | > 100 µM (inactive) | > 100 µM (inactive) | > 100 µM (inactive) | > 100 µM (inactive) | > 100 µM (inactive) | > 100 µM (inactive)
COc1ccc(C2SC(=N)Nc3c2c(C)nn3C(=O)c2ccccc2O)cc1OC (stereo not given) | 7.1 µM (inactive) | > 10 µM (inactive) | 4.3 µM (inactive) | 2.37 µM (inactive) | > 10 µM (inactive) | 1.56 µM (inactive) | 4.71 µM (inactive) | 4.06 µM (inactive) | 4.68 µM (inactive) | > 10 µM (inactive) | 4.5 µM (inactive) | 5.69 µM (inactive) | 9.51 µM (inactive) | 4.26 µM (inactive) |  | > 10 µM (inactive) | 2.64 µM (inactive) | 4.93 µM (inactive)
CC(=O)O[C@H]1C(=O)[C@@]2(C)[C@H]([C@H](OC(=O)c3ccccc3)[C@]3(O)C[C@H](OC(=O)[C@H](O)[C@@H](NC(=O)C(C)(C)C)c4ccccc4)C(C)=C1C3(C)C)[C@]1(OC(C)=O)CO[C@@H]1C[C@@H]2O | 0.324 µM (active) | 0.0444 µM (active) | 0.106 µM (active) | 0.0322 µM (active) | 0.0414 µM (active) | 0.0485 µM (active) | 0.0476 µM (active) | 0.0454 µM (active) | 0.0955 µM (active) |  | 0.0565 µM (active) | 0.29 µM (active) | 0.105 µM (active) | 0.0736 µM (active) | 0.0435 µM (active) | 0.38 µM (active) | 0.0485 µM (active) | 0.0397 µM (active)
O=C1OS2(OC(=O)c3cccc4cccc2c34)c2ccccc21 (stereo not given) | > 100 µM (inactive) | > 100 µM (inactive) | > 100 µM (inactive) | > 100 µM (inactive) | > 100 µM (inactive) | > 100 µM (inactive) | > 100 µM (inactive) | > 100 µM (inactive) |  | > 100 µM (inactive) | > 100 µM (inactive) | > 100 µM (inactive) | > 100 µM (inactive) | > 100 µM (inactive) | > 100 µM (inactive) | > 100 µM (inactive) | > 10 µM (inactive) | > 100 µM (inactive)
